Experimental data published in patent US5240918A, “2-(substituted imino)-thiazolidines and process for the preparation thereof” (EGIS Gyogyszergyar, priority 1992, dated 1993).
Read-outs that look alike come from different tables or passages of the source.

Key:
acetic acid "writhing" = assay: Acetic acid "writhing test" on mice (analgesic effect; method of Newbould); format: in vivo; conditions: Mus musculus, po
Experimental: 2. Acetic acid "writhing test" on mice (analgesic effect) Method: Newbould, Brit. […] In the period between the 5th and 10th minutes following the administration of acetic acid the number of the characteristic "writhing" responses is counted for each animal and the "total writhing number" (within 5 minutes) is expressed as the percentage of the value obtained for the control animals. The mice are treated with the test compound and the carrier, respectively, orally 1 hour before the administration of acetic acid. 12 animals are used per dose.

[1] = Toxicity (LD50) and therapeutical index, Table II; conditions: mouse, in vivo
[2] = test system: experimental coronaria insufficiency induced with vasopressin; assay: Antianginal effect (vasopressin-induced experimental coronaria insufficiency, ECG wave T; method of Nieschulz et al.); format: in vivo; conditions: male rats, 2 minutes prior to vasopressin; for ED50: Rattus norvegicus, iv.
Experimental: Method: the test was carried out on rats by using the method of Nieschulz, E., Popendiker, K. and Hoffmann, I. (Arzneimittel Forschung, 5, 680 /1955/).
Male rats of 180-220 g body weight were narcotized with chloralese-urethane(70-700 mg/kg ip.). The ECG was registered with needle electrodes in standard II leading. The experimental coronaria insufficiency was induced with […].). The height of wave T in ECG was measured before and after the administration of vasopressin in both the control and treated groups. Test compounds were administered intravenously 2 minutes prior to the treatment with vasopressin.

[3] = white mice, orally 1 hour before acetic acid, writhing counted 5th to 10th minutes, 12 animals per dose, read-out: ID50 (the source's name)

SMILES | ED50 (acetic acid "writhing"; [3]) | LD50 [1] | selectivity ratio [1] | ED50 (acetic acid "writhing"; read-out: ID50 mg/kg) | ED50 [2] | Activity (2 mg/kg iv.) [2]
CC(=O)N=C1SCCN1c1ccc(Cl)cc1[N+](=O)[O-] [Example 24, 2-Acetylimino-3-(4'-chloro-2'-nitrophenyl)-thiazolidine] | 37 mg/kg | 700 mg/kg | 10.9 |  |  | 
CC(=O)Oc1ccccc1C(=O)O [Acetylsalicylic acid, reference compound] |  | 1350 mg/kg | 5.2 | 261 mg/kg |  | 
N#CN=C1SCCN1c1cc(Cl)ccc1[N+](=O)[O-] [Example 46, 2-Cyanimido-3-(5'-chloro-2'-nitrophenyl)thiazolidine] |  |  |  |  | 1.76 mg/kg | 62%
CC(=O)N=C1SCCN1c1ccc(C(F)(F)F)cc1[N+](=O)[O-] [Example 26, 2-Acetylimino-3-(4'-trifluoromethyl-2'-nitrophenyl)-thiazolidine] | 170 mg/kg | 2000 mg/kg | 11.8 |  |  | 
C=CCNC(=S)N=C1SCCN1c1cc(Cl)ccc1[N+](=O)[O-] [Example 20, 2-(N'-Allylthiocarbamoylimino)-3-(5'-chloro-2'-nitrophenyl)-thiazolidine] |  |  |  |  | 1.45 mg/kg | 78%
CC(=O)N=C1SCCN1c1ccccc1[N+](=O)[O-] [Example 25, L-Acetylimino=3-(2-nitrophenyl)-thiazolidine] | 180 mg/kg | 2000 mg/kg | 11.1 |  |  | 
